Where “and” joins values, the source holds several entries; their conditions need not be identical. Identical values can stand only once.
Tested on: anti collagen antibodies induced arthritis (ACAIA)
Test: Anti collagen antibodies induced arthritis (ACAIA) in mice, intra-articular treatment: paw thickness, arthritis clinical score, body weight;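 also: mouse arthritis induced by IV anti-collagen mAb on day 0 plus IP LPS on day 4, with body weight, caliper paw thickness and 0-4 paw score tracked against a day 0 baseline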
Conditions: for Average clinical score per day (untreated): untreated leg
[1] = BETi1 0.1 mg/kg IA (Group 4), Av
[2] = BETi1 0.1 mg/kg IA (Group 4), individual animals, 0.1 mg/kg
[3] = BETi1 1 mg/kg IA (Group 3), individual animals, 1 mg/kg
[4] = BETi1 10 mg/kg IA (Group 2), Av
[5] = BETi1 10 mg/kg IA (Group 2), individual animals, 10 mg/kg

Method: A homogenous dispersion is accomplished by sonication at 40 kHz for 30 minutes. The homogeneity including absence of aggregates of particles of the dispersion is confirmed by light microscopy. Lower concentrations are obtained by corresponding dilution of dispersion at 4 mg/gram with NaCMC solution. All dispersions are thermally sterilized.
Animals weighing −20 g are administered with 0.2 ml or 50 μl of dosing solution via IA (Groups 1-5).
During the acclimation period (at least 5 days), animals are randomly assigned to experimental groups according to body weight. Each dosing group is kept in separate cages to avoid cross-contamination which can occur through the consumption of fecal matter during the study. To generate the morphological and functional aspects of Rheumatoid Arthritis, all mice (7 mice in each of Groups 1-7) are subjected to a tail intravenous (IV) injection of 0.4 ml of anti-collagen mAb (4 mg in 400 μl) on study day 0. LPS is injected intraperitoneally on study day 4 (50 μg LPS in 200 μl of PBS). Anti-collagen mAb is supplied by MD Biosciences, Division of Morwell Diagnostics GmbH and is used as provided.
50 μl of the positive control is administered via intra-articular (IA) on study days 0, 3, 6 and 9 (Group 7).
Animals are examined for signs of arthritis on study day 0 for all paws and again on study days 3-8, 10 and 12 (front left and right paws, hind left and right paws). The signs of arthritis on study day 0 serve as a baseline for the arthritis clinical score parameter. Arthritis reactions are reported for each paw according to a 0-4 scale in ascending order of severity as shown below.
Paw thickness for both hind paws is measured on study day 0 and again on study days 3-8, 10 and 12. The measurements of paw thickness on study day 0 serve as the baseline for the paw volume parameter. The measurements are carried out using a digital caliper.
Throughout the 13-day study general clinical signs and observation are performed and recorded if any unexpected abnormalities are observed. These clinical signs are observed in addition to the ACAIA clinical scoring and assessment.
Individual body weights are determined on study day 0 and shortly before arthritis induction on study day 0. The weights measured on study day 0 are used as baseline measurements. From disease induction the animals are weighed daily on study days 3-8, 10 and 12 (study termination).
Statistics and data evaluation are primarily based on the mean values for body weight, arthritis clinical scoring and paw thickness measurements. Where appropriate, analysis of the data by one-way ANOVA followed by Dunnett's post-test is applied to determine the significance of treatment effects. All data for the histopathological analysis is presented as Mean±SEM. The treatment groups are compared to the Vehicle group (Group 1) or the contralateral hind paw using the Student's T-test. A p-value <0.05 is considered to represent a significant difference.
Inflammatory arthritis was induced in BALB/C mice using a mixture of four arthritogenic MAbs by iv at Day 0 and was further challenged with an LPS iv injection at Day 4 (N=7/treatment group).
In this validated preclinical model for rheumatoid arthritis, inflammatory arthritis was induced in BALB/c mice by systemically injecting a mixture of four arthritogenic monoclonal antibodies against collagen II at day 1. In addition, the mice received a lipopolysaccharide injection systemically at day 4 to stimulate an acute systemic inflammatory response. […] Each animal treated with the intra-articular injections received the injection in the ankle of one rear paw. The untreated rear paw was assessed to evaluate any potential anti-inflammatory systemic effect. Treatment response was evaluated based on an assessment of paw thickening or swelling (in millimeters) and arthritis scoring based on a five-point composite severity scale of redness, swelling of the ankles and wrists, and paw thickness.

Compound: Cn1cc(-c2cccc(O)c2Oc2ccccc2)c2cc[nH]c2c1=O [BETi1]
- Weight per day, Day 5 [1]: 18.6 g
- Weight per day, Day 6 [1]: 18.1 g
- Weight per day, Day 7 [1]: 18.1 g
- Weight per day, Day 8 [1]: 17.9 g
- Weight per day, Day 10 [1]: 18.1 g
- Weight per day, Day 12 [1]: 19.1 g
- Weight per day, Baseline [2]: 20.2 g and 21 g and 19.7 g and 21.9 g and 20.3 g and 21.5 g and 18.5 g
- Weight per day, Day 3 [2]: 20 g and 21.2 g (2×) and 20.3 g and 22.4 g and 20.6 g and 18.8 g
- Weight per day, Day 4 [2]: 20 g and 21.3 g and 18 g and 21.9 g and 20.4 g and 21.4 g and 19.1 g
- Weight per day, Day 5 [2]: 18.1 g and 19 g and 16.6 g and 20.5 g and 19.4 g (2×) and 17.4 g
- Weight per day, Day 6 [2]: 17.3 g and 18.7 g and 16.5 g and 19.7 g and 18.5 g and 18.9 g and 17.2 g
- Weight per day, Day 7 [2]: 17.8 g and 18.8 g (2×) and 16.8 g and 19.5 g and 18.2 g and 16.7 g
- Weight per day, Day 8 [2]: 17.5 g and 18.4 g (3×) and 16.7 g and 19.5 g and 16.6 g
- Weight per day, Day 10 [2]: 18.2 g and 19 g and 16.8 g (2×) and 19.4 g and 17.7 g and 19.1 g
- Weight per day, Day 12 [2]: 18.8 g and 19.9 g and 17.5 g and 20.7 g and 18.7 g and 20.2 g and 18 g
- Weight per day, Baseline (BETi1 1 mg/kg IA (Group 3), Av): 20.7 g
- Weight per day, Day 3 (BETi1 1 mg/kg IA (Group 3), Av): 20.7 g
- Weight per day, Day 4 (BETi1 1 mg/kg IA (Group 3), Av): 21 g
- Weight per day, Day 5 (BETi1 1 mg/kg IA (Group 3), Av): 19 g
- Weight per day, Day 6 (BETi1 1 mg/kg IA (Group 3), Av): 18.5 g
- Weight per day, Day 7 (BETi1 1 mg/kg IA (Group 3), Av): 18.6 g
- Weight per day, Day 8 (BETi1 1 mg/kg IA (Group 3), Av): 18.9 g
- Weight per day, Day 10 (BETi1 1 mg/kg IA (Group 3), Av): 19.3 g
- Weight per day, Day 12 (BETi1 1 mg/kg IA (Group 3), Av): 20.1 g
- Weight per day, Baseline [3]: 20.4 g and 22.5 g and 20.3 g and 19.9 g and 21.5 g and 19.7 g and 20.6 g
- Weight per day, Day 3 [3]: 20.6 g and 22.1 g and 20.8 g and 19.6 g and 21 g and 19.8 g and 20.9 g
- Weight per day, Day 4 [3]: 20.8 g and 22.5 g and 21.1 g and 19.9 g (2×) and 21.7 g and 21 g
- Weight per day, Day 5 [3]: 19.1 g and 20.2 g and 19.2 g (2×) and 17.7 g and 17.9 g and 19.5 g
- Weight per day, Day 6 [3]: 18.7 g and 18.6 g and 18.8 g (2×) and 18 g and 19.3 g and 17.2 g
- Weight per day, Day 7 [3]: 18.3 g and 18.9 g (2×) and 17.8 g and 19.4 g and 17.7 g and 19.2 g
- Weight per day, Day 8 [3]: 18.5 g and 19.8 g and 18.8 g and 17.9 g and 19.3 g and 18.2 g and 19.6 g
- Weight per day, Day 10 [3]: 18.8 g and 21.3 g and 19 g and 18.6 g and 19.3 g and 18.7 g and 19.2 g
- Weight per day, Day 12 [3]: 19.4 g (2×) and 22.5 g and 19.9 g and 19.3 g and 20.1 g (2×)
- Weight per day, Baseline [4]: 21.3 g
- Weight per day, Day 3 [4]: 21.4 g
- Weight per day, Day 4 [4]: 21.5 g
- Weight per day, Day 5 [4]: 19.6 g
- Weight per day, Day 6 [4]: 19.6 g
- Weight per day, Day 7 [4]: 19.5 g
- Weight per day, Day 8 [4]: 19.2 g
- Weight per day, Day 10 [4]: 19.4 g
- Weight per day, Day 12 [4]: 20.2 g
- Weight per day, Baseline [5]: 20.2 g and 21.6 g and 20.8 g and 21.7 g and 21.4 g and 22.2 g and 21.3 g
- Weight per day, Day 3 [5]: 20.1 g and 21.5 g (2×) and 21.3 g (2×) and 22 g and 21.8 g
- Weight per day, Day 4 [5]: 20.2 g and 21.4 g (2×) and 22.4 g and 21.6 g and 21.9 g and 21.7 g
- Weight per day, Day 5 [5]: 18.5 g and 20.1 g and 19.3 g and 20.3 g and 19.9 g and 19.4 g
- Weight per day, Day 6 [5]: 18.9 g and 19.8 g and 19.2 g and 19.5 g (2×) and 20.4 g
- Weight per day, Day 7 [5]: 18.7 g and 19.4 g and 19.5 g and 19.6 g (2×) and 20.3 g
- Weight per day, Day 8 [5]: 18.6 g and 19.2 g and 19.6 g and 18.8 g and 20.2 g and 19.1 g
- Weight per day, Day 10 [5]: 18.3 g and 19.2 g and 19.8 g and 19.6 g and 20.5 g and 19.3 g
- Weight per day, Day 12 [5]: 19.3 g and 20.3 g and 20.4 g and 19.9 g and 21.1 g and 20 g
- Average clinical score per day (untreated) (0.01 mg/kg IA (Group 5), Baseline): 0.00 points
- Average clinical score per day (untreated) (0.01 mg/kg IA (Group 5), Day 3): 0.00 points
- Average clinical score per day (untreated) (0.01 mg/kg IA (Group 5), Day 4): 0.00 points
- Average clinical score per day (untreated) (0.01 mg/kg IA (Group 5), Day 5): 0.00 points
- Average clinical score per day (untreated) (0.01 mg/kg IA (Group 5), Day 6): 0.86 points
- Average clinical score per day (untreated) (0.01 mg/kg IA (Group 5), Day 7): 1.57 points
- Average clinical score per day (untreated) (0.01 mg/kg IA (Group 5), Day 8): 1.71 points
- Average clinical score per day (untreated) (0.01 mg/kg IA (Group 5), Day 10): 2.14 points
- Average clinical score per day (untreated) (0.01 mg/kg IA (Group 5), Day 12): 1.43 points
- Average clinical score per day (untreated) (0.1 mg/kg IA (Group 4), Baseline): 0.00 points
- Average clinical score per day (untreated) (0.1 mg/kg IA (Group 4), Day 3): 0.00 points
- Average clinical score per day (untreated) (0.1 mg/kg IA (Group 4), Day 4): 0.00 points
- Average clinical score per day (untreated) (0.1 mg/kg IA (Group 4), Day 5): 0.00 points
- Average clinical score per day (untreated) (0.1 mg/kg IA (Group 4), Day 6): 1.14 points
- Average clinical score per day (untreated) (0.1 mg/kg IA (Group 4), Day 7): 2.00 points
- Average clinical score per day (untreated) (0.1 mg/kg IA (Group 4), Day 8): 2.29 points
- Average clinical score per day (untreated) (0.1 mg/kg IA (Group 4), Day 10): 2.57 points
- Average clinical score per day (untreated) (0.1 mg/kg IA (Group 4), Day 12): 3.00 points
- Average clinical score per day (untreated) (1 mg/kg IA (Group 3), Baseline): 0.00 points
- Average clinical score per day (untreated) (1 mg/kg IA (Group 3), Day 3): 0.00 points
- Average clinical score per day (untreated) (1 mg/kg IA (Group 3), Day 4): 0.00 points
- Average clinical score per day (untreated) (1 mg/kg IA (Group 3), Day 5): 0.00 points
- Average clinical score per day (untreated) (1 mg/kg IA (Group 3), Day 6): 0.71 points
- Average clinical score per day (untreated) (1 mg/kg IA (Group 3), Day 7): 1.43 points
- Average clinical score per day (untreated) (1 mg/kg IA (Group 3), Day 8): 2.43 points
- Average clinical score per day (untreated) (1 mg/kg IA (Group 3), Day 10): 2.00 points
- Average clinical score per day (untreated) (1 mg/kg IA (Group 3), Day 12): 2.43 points
- Average clinical score per day (untreated) (10 mg/kg IA (Group 2), Baseline): 0.00 points
- Average clinical score per day (untreated) (10 mg/kg IA (Group 2), Day 3): 0.00 points
- Average clinical score per day (untreated) (10 mg/kg IA (Group 2), Day 4): 0.00 points
- Average clinical score per day (untreated) (10 mg/kg IA (Group 2), Day 5): 0.00 points
- Average clinical score per day (untreated) (10 mg/kg IA (Group 2), Day 6): 0.83 points
- Average clinical score per day (untreated) (10 mg/kg IA (Group 2), Day 7): 1.83 points
- Average clinical score per day (untreated) (10 mg/kg IA (Group 2), Day 8): 3.00 points
- Average clinical score per day (untreated) (10 mg/kg IA (Group 2), Day 10): 3.00 points
- Average clinical score per day (untreated) (10 mg/kg IA (Group 2), Day 12): 3.33 points

— patent publication US20250339409A1, “USES OF PAN BET INHIBITORS” (VYNE THERAPEUTICS INC., priority 2021, published 2025)
